Data reported in patent publication US10118935B2, “Melampomagnolide B dimers” (priority 2014, dated 2018).

Tests used:
COLO 205 = assay: NCI 60 cell line five dose, Colon Cancer
UACC-62 = assay: NCI 60 cell line five dose, Melanoma
SK-MEL-28 = assay: NCI 60 cell line five dose, Melanoma
MDA-MB-435 = assay: NCI 60 cell line five dose, Melanoma
HCT-15 = assay: NCI 60 cell line five dose, Colon Cancer
UACC-257 = assay: NCI 60 cell line five dose, Melanoma
HS 578T = assay: NCI 60 cell line five dose, Breast Cancer; settings: HS578T
RPMI-8226 = assay: NCI 60 cell line five dose, Leukemia
HT29 = assay: NCI 60 cell line five dose, Colon Cancer
MDA-MB-468 = assay: NCI 60 cell line five dose, Breast Cancer
SF-295 = assay: NCI 60 cell line five dose, CNS Cancer
SN12C = assay: NCI 60 cell line five dose, Renal Cancer

C=C1C(=O)O[C@H]2[C@H]1CC/C(COC(=O)NCCCCCCCCNC(=O)OC/C1=C/CC[C@@]3(C)O[C@H]3[C@H]3OC(=O)C(=C)[C@@H]3CC1)=C\CC[C@@]1(C)O[C@@H]21 [JVM 3-62, bis(((1aR,7aS, 10aS, 10bS, E)-1a-Methyl-8-methylene-9-oxo-1a,2,3,6,7,7a,8,9,10a,10b-decahydrooxireno[2′,3′:9,10]cyclodeca[1,2-b]furan-5-yl)methyl)octane-1,8-diyldicarbamate]
Percent Growth (COLO 205; Log10 Concentration −4.0): −65% | Percent Growth (COLO 205; Log10 Concentration −5.0): −73% | Percent Growth (COLO 205; Log10 Concentration −6.0): −15% | Percent Growth (COLO 205; Log10 Concentration −7.0): 109% | Percent Growth (COLO 205; Log10 Concentration −8.0): 104% | GI50 (COLO 205; molar): 0.3 µM | TGI (COLO 205; molar): 7.56E−7 | CC50 (COLO 205; read-out: LC50, molar): 3.99 µM | Percent Growth (UACC-62; Log10 Concentration −4.0): −77% | Percent Growth (UACC-62; Log10 Concentration −5.0): −84% | Percent Growth (UACC-62; Log10 Concentration −6.0): −39% | Percent Growth (UACC-62; Log10 Concentration −7.0): 87% | Percent Growth (UACC-62; Log10 Concentration −8.0): 96% | GI50 (UACC-62; molar): 0.197 µM | TGI (UACC-62; molar): 4.88E−7 | CC50 (UACC-62; read-out: LC50, molar): 1.72 µM | Percent Growth (SK-MEL-28; Log10 Concentration −4.0): −71% | Percent Growth (SK-MEL-28; Log10 Concentration −5.0): −77% | Percent Growth (SK-MEL-28; Log10 Concentration −6.0): −37% | Percent Growth (SK-MEL-28; Log10 Concentration −7.0): 90% | Percent Growth (SK-MEL-28; Log10 Concentration −8.0): 92% | GI50 (SK-MEL-28; molar): 0.205 µM | TGI (SK-MEL-28; molar): 5.11E−7 | CC50 (SK-MEL-28; read-out: LC50, molar): 2.12 µM | Percent Growth (MDA-MB-435; Log10 Concentration −4.0): −86% | Percent Growth (MDA-MB-435; Log10 Concentration −5.0): −74% | Percent Growth (MDA-MB-435; Log10 Concentration −6.0): −18% | Percent Growth (MDA-MB-435; Log10 Concentration −7.0): 92% | Percent Growth (MDA-MB-435; Log10 Concentration −8.0): 91% | GI50 (MDA-MB-435; molar): 0.241 µM | TGI (MDA-MB-435; molar): 6.86E−7 | CC50 (MDA-MB-435; read-out: LC50, molar): 3.74 µM | Percent Growth (HCT-15; Log10 Concentration −4.0): 83% | Percent Growth (HCT-15; Log10 Concentration −5.0): −90% | Percent Growth (HCT-15; Log10 Concentration −6.0): 16% | Percent Growth (HCT-15; Log10 Concentration −7.0): 90% | Percent Growth (HCT-15; Log10 Concentration −8.0): 91% | GI50 (HCT-15; molar): 0.346 µM | TGI (HCT-15; molar): 1.41E−6 | CC50 (HCT-15; read-out: LC50, molar): 4.16 µM | Percent Growth (UACC-257; Log10 Concentration −4.0): −55% | Percent Growth (UACC-257; Log10 Concentration −5.0): −57% | Percent Growth (UACC-257; Log10 Concentration −6.0): 47% | Percent Growth (UACC-257; Log10 Concentration −7.0): 89% | Percent Growth (UACC-257; Log10 Concentration −8.0): 97% | GI50 (UACC-257; molar): 0.848 µM | TGI (UACC-257; molar): 2.82E−6 | CC50 (UACC-257; read-out: LC50, molar): 8.51 µM | Percent Growth (HS 578T; Log10 Concentration −4.0): −26% | Percent Growth (HS 578T; Log10 Concentration −5.0): −5% | Percent Growth (HS 578T; Log10 Concentration −6.0): 54% | Percent Growth (HS 578T; Log10 Concentration −7.0): 90% | Percent Growth (HS 578T; Log10 Concentration −8.0): 94% | GI50 (HS 578T; molar): 1.17 µM | TGI (HS 578T; molar): 8.25E−6 | CC50 (HS 578T; read-out: LC50, molar): > 100 µM | Percent Growth (RPMI-8226; Log10 Concentration −4.0): −38% | Percent Growth (RPMI-8226; Log10 Concentration −5.0): −45% | Percent Growth (RPMI-8226; Log10 Concentration −6.0): −13% | Percent Growth (RPMI-8226; Log10 Concentration −7.0): 92% | Percent Growth (RPMI-8226; Log10 Concentration −8.0): 98% | GI50 (RPMI-8226; molar): 0.25 µM | TGI (RPMI-8226; molar): 7.45E−7 | CC50 (RPMI-8226; read-out: LC50, molar): > 100 µM | Percent Growth (HT29; Log10 Concentration −4.0): −84% | Percent Growth (HT29; Log10 Concentration −5.0): −80% | Percent Growth (HT29; Log10 Concentration −6.0): −33% | Percent Growth (HT29; Log10 Concentration −7.0): 97% | Percent Growth (HT29; Log10 Concentration −8.0): 100% | GI50 (HT29; molar): 0.228 µM | CC50 (HT29; read-out: LC50, molar): 2.27 µM | Percent Growth (MDA-MB-468; Log10 Concentration −4.0): −70% | Percent Growth (MDA-MB-468; Log10 Concentration −5.0): −81% | Percent Growth (MDA-MB-468; Log10 Concentration −6.0): −43% | Percent Growth (MDA-MB-468; Log10 Concentration −7.0): 86% | Percent Growth (MDA-MB-468; Log10 Concentration −8.0): 100% | GI50 (MDA-MB-468; molar): 0.19 µM | TGI (MDA-MB-468; molar): 4.62E−7 | CC50 (MDA-MB-468; read-out: LC50, molar): 1.5 µM | Percent Growth (SF-295; Log10 Concentration −4.0): −87% | Percent Growth (SF-295; Log10 Concentration −5.0): −40% | Percent Growth (SF-295; Log10 Concentration −6.0): 87% | Percent Growth (SF-295; Log10 Concentration −7.0): 92% | Percent Growth (SF-295; Log10 Concentration −8.0): 85% | GI50 (SF-295; molar): 1.95 µM | TGI (SF-295; molar): 4.82E−6 | CC50 (SF-295; read-out: LC50, molar): 16.2 µM | Percent Growth (SN12C; Log10 Concentration −4.0): −59% | Percent Growth (SN12C; Log10 Concentration −5.0): −65% | Percent Growth (SN12C; Log10 Concentration −6.0): −7% | Percent Growth (SN12C; Log10 Concentration −7.0): 91% | Percent Growth (SN12C; Log10 Concentration −8.0): 100% | GI50 (SN12C; molar): 0.264 µM
